Reference: patent EP1285919A1, “C10 Carbonate substituted taxanes as antitumor agents” (Florida State University Research Foundation, Inc., priority 2001, dated 2003)

What was measured:
[1] = test system: MX-1 Human Breast Carcinoma Xenograft; assay: In vivo evaluation of oral administration against MX-1 breast carcinoma xenograft
Experimental: In Vivo Evaluation of the Oral Administration of Antitumor Compounds Against the MX-1 Human Breast Carcinoma Xenograft
The compounds were prepared in the following vehicle: 90% saline, 5% Cremophor, and 5% ethanol.

blood cell populations = assay: Effect of oral treatment on blood cell populations, body weight and tumor weight in the MX-1 study; type: in vivo, nu/nu mice; conditions: Group 3: 73 mg/kg single oral bolus
Experimental: Antitumor compounds were administered orally in a study to investigate whether such formulations are efficacious against the MX-1 human breast carcinoma xenograft. The compounds were prepared in the following vehicle: 90% saline, 5% Cremophor, and 5% ethanol. Antitumor compound 1771 was formulated as described for Solution 1 in Example 6. Antitumor compound 1781 was formulated as described for Solution 2 in Example 6.
Female nu/nu mice (11-12 weeks of age; implanted subcutaneously with 1 mm^3 MX-1 human breast carcinoma fragments in the flank) were sorted into one control (n=10) and two treatment (n=6) groups (group mean tumor size of 47-49 mg). Treatment groups are detailed in Table 14.
In addition to survival and tumor regression responses, the effect of treatment on blood cell populations was assessed. The major effect of these antitumor compounds on blood cell populations was a marked reduction in the neutrophil cell number. Monocyte depletion correlated fairly well with neutrophil reduction for each antitumor compound. […] There was a correlation between antitumor activity and reduced neutrophil count. In general, toxicity (as determined by neutrophil depletion) and weight loss correlated with efficacy. Importantly, the toxicities observed with the very efficacious antitumor compounds were manageable and reversible; neutrophil count and body weight rebounded from their nadirs in just a few days. Table 15 summarized the weight reduction, neutrophil and monocyte measurements on Day 4, with tumor weight reduction calculated at Day 18: Table 15

[2] = test system: NCI-H1299 (H1299) carcinoma
Experimental: In Vivo Evaluation of Antitumor Compounds Against Human Lung Carcinoma Xenografts
The compounds were prepared in the manner as described for Solution 2 of Example 10. Taxol (paclitaxel, Bristol Meyers Squibb), used as a control, was obtained as the marketed pharmaceutical drug.
Taxol itself was given as a split i.v. dose of 36 mg/kg, with the two 18 mg/kg doses separated by one hour. Vehicle control animals were dosed twice intravenously with half the total volume being given separated by one hour. The study was terminated on Day 60.
The results are summarized in Table 1 and include mean days of survival (MDS), number of toxic deaths, number of survivors, number of complete or partial responses, and number with stable disease. The mean days of survival is the number of days after which a SKMES neoplasm reached a size of 1.5 g and the animal was euthanized. A complete response is obtained if the tumor is not palpable at the end of the study. A partial response is obtained if the tumor shrinks to a size smaller than its size on Day 1 of the study.
A tumor scoring system was designed to provide a more quantitative ranking of efficacy (therapeutic potential) among the antitumor agents evaluated against the different human solid tumor xenografts. Each mouse in a study was given a score of from 1 to 10 at the end of the study. The scores can be summarized as follows:
The individual score for each mouse was averaged into a mean score for each treatment group. […]
The treatment protocol for the H1299 test was identical to the SK-MES test protocol. […]

[3] = Group 3: 73 mg/kg single oral bolus Day 1, 6 mice, study to Day 63

| Compound | Mean Day of Survival (n) ([1]; Group 3: 73 mg/kg single oral bolus Day 1, 6 mice, n=5, 1.5 g endpoint, study to Day 63) | Maximum Weight Loss (Day) ([1]; Group 3: 73 mg/kg single oral bolus Day 1, 6 mice, on Day 5) | Complete Response [1, 3] | Partial Response [1, 3] | Stable Disease [1, 3] | Toxic Deaths [1, 3] | survival versus vehicle controls ([1]; single oral bolus Day 1, for 1771 the other two mice of the group) | Monocytes (K/µL) (blood cell populations; Day 4) | Neutrophils (K/µL) (blood cell populations; Day 4) | % Reduction (Neutrophils) (blood cell populations; Day 4, vs vehicle) | Weight (blood cell populations; MX-1 tumor weight, Day 18) | % Reduction (Weight) (blood cell populations; tumor weight reduction calculated at Day 18, vs vehicle) | survival extension compared to vehicle-treated animals ([2]; Taxol 36 mg/kg i.v., five animals) | MDS (n) ([2]; mean days of survival, i.v. split dose qd x 1, Taxol 36 mg/kg, 1755 49 mg/kg, six mice per group) | Complete Response ([2]; number of mice of six) | Stable Disease ([2]; number of mice of six) | Survivors ([2]; number of mice of six) | Toxic Deaths ([2]; number of mice of six, i.v. split dose qd x 1, Taxol 36 mg/kg, 1755 49 mg/kg) | Mean Score ([2]; tumor score 1 to 10 per mouse, averaged per group) |
| --- | --- | --- | --- | --- | --- | --- | --- | --- | --- | --- | --- | --- | --- | --- | --- | --- | --- | --- | --- |
| CCOC(=O)O[C@H]1C(=O)[C@@]2(C)[C@H]([C@H](OC(=O)c3ccccc3)[C@]3(O)C[C@H](OC(=O)[C@H](O)[C@H](C=C(C)C)NC(=O)OC(C)(C)C)C(C)=C1C3(C)C)[C@]1(OC(C)=O)CO[C@@H]1C[C@@H]2O [Compound 1781] | 33.3 ± 2.9 (5) | -9.4% (5) | 0 | 0 | 1 | 0 | significant survival extensions | 0.101 K/µL | 0.117 K/µL | 87.2% | 275.3 mg | 68.3% | – | – | – | – | – | – | – |
| CC(=O)O[C@H]1C(=O)[C@@]2(C)[C@H]([C@H](OC(=O)c3ccccc3)[C@]3(O)C[C@H](OC(=O)[C@H](O)[C@@H](NC(=O)c4ccccc4)c4ccccc4)C(C)=C1C3(C)C)[C@]1(OC(C)=O)CO[C@@H]1C[C@@H]2O [Taxol] | – | – | – | – | – | – | – | – | – | – | – | – | 10% | 27.0 ± 4.6 (5) days | 0 | 0 | 1 | 0 | 2.7 ± 1.3 |
